Measured values taken from patent publication US20250295657A1, “Methods and Compositions for Treatment of Inflammation and Inflammatory Conditions” (University of Pittsburgh - Of the Commonwealth System of …, priority 2022, published 2025).

Tests used:
VCAM1 = VCAM1 expression by RT-qPCR and immunoblot in PAECs; type: cell-based, human
Description: (§1) RNA extraction and quantitative polymerase chain reaction: Cells were lysed in QIAzol Lysis Reagent (Qiagen; 79306), and RNA was extracted using the Rnaeasy Kit (Qiagen; 74004). Complementary DNA was synthesized using the High-Capacity cDNA Reverse Transcription Kit (ThermoFisher; 4368813). Quantitative real-time PCR (RT-qPCR) was performed on an Applied Biosystems QuantStudio 6 Flex Real-Time PCR instrument.
(§2) Target gene expression was normalized to a housekeeping gene (i.e., ACTB) and fold change was calculated using the […] method. TaqMan™ Universal PCR Master Mix (ThermoFisher; 4305719) was used with TaqMan primers (Table 1). PowerUp™ SYBR^TM Green Master Mix (ThermoFisher; A25742) was used with custom designed primers (Table 2).
Protein extraction and immunoblotting: Cells were rinsed two times with PBS before collection in RIPA buffer containing protease and phosphatase inhibitors. Protein concentration was determined using the Pierce™ BCA Protein Assay Kit (ThermoFisher; 23225). Protein lysates were separated using 4-15% Mini-PROTEAN® TGX™ Precast Protein Gels (Bio-Rad Laboratories; 4561086) and subsequently transferred onto a PVDF membrane. Membranes were blocked with 5% BSA in Tris-buffered saline with 0.1% Tween 20 (TBST) for one hour at room temperature. Primary antibodies were subsequently added and incubated at 4° C. overnight (Table 3). The next day blots were washed three times for 10 minutes each with TBST. Blots were then incubated with the appropriate secondary antibody coupled to HRP for one hour at room temperature. After another round of TBST washing, blots were visualized using Pierce ECL reagents and images were captured using the BioRad ChemiDoc XRS+.
Application of oxysterols and bile acids: Oxysterols and bile acids were applied to human PAECs in 0.1% FBS, cell-specific media. 25-hydroxycholesterol and 7HOCA were dissolved in 100% ethanol and applied to cells at a concentration of 25 μM or 50 μM for 24 hours, respectively.

human PAECs = assay: Leukocyte and monocyte adhesion to an endothelial monolayer; type: cell-based
Description: Leukocyte and monocyte adhesion assays: Immune activation of the endothelium was assessed by measuring the adhesion of immune cells to an endothelial monolayer. Human PAECs were cultured until a complete monolayer was formed. Immune cells were stained with either CellTrace™ Blue or CFSE (ThermoFisher; Blue, C34568; CFSE, C34554) per the manufacturer's protocol. Between […] stained immune cells were added to each well of a six-well plate and allowed to incubate for 24 hours. Wells were then rinsed two times with PBS and subsequently fixed with 4% PFA for 15 minutes at room temperature. After fixation, the cells were rinsed once more with PBS. Fluorescent images were acquired at 4× magnification for each well. Immune cell number per image was quantified using Fiji. For the leukocyte adhesion assay, HuT 78 cutaneous T lymphocytes were used (ATCC). For the monocyte adhesion assay, THP-1 peripheral blood monocytes were used (ATCC).

[1] = tested on: chronically hypoxic mouse model; details: 10 mg/kg orotracheal, four weeks hypoxia
CH25H = CH25H expression via RT-qPCR in PAECs under IL-1β; type: cell-based, human
Description: as §1, §2

[2] = tested on: monocrotaline PAH rat model; details: 7.5 mg/kg i.p. for 10 days
[3] = molecular target: ATP6V1B2-NCOA7 interactions (Homo sapiens, UniProt Q8NI08); assay: Proximity ligation assay of ATP6V1B2-NCOA7 interactions in human PAECs; type: cell-based; details: 958ami versus DMSO
ATP6V1B2-NCOA7 interactions, sequence (P21281 whole entry partner, one chain of several): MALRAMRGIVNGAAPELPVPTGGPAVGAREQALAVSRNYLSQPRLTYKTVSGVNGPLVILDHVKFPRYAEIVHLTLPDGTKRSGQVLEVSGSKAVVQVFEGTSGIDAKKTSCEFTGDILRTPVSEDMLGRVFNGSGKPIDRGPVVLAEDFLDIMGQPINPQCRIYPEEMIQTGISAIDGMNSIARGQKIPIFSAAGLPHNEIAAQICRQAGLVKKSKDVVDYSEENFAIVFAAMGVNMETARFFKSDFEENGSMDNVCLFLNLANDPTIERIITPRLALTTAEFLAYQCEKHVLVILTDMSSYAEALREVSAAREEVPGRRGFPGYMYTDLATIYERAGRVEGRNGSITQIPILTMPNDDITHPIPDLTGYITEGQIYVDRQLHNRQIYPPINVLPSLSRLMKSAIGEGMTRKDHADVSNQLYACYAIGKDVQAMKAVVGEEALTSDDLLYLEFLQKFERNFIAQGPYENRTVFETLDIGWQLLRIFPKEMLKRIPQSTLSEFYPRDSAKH
Description: Proximity ligation assay: Direct interaction of NCOA7 with the V-ATPase subunit ATP6V1B2 was assessed using the Duolink® Proximity Ligation Assay (Millipore Sigma; DU092102). Human PAECs were plated in a Nunc™ Lab-Tek™ II Chamber Slide™ System (20,000 per well; ThermoFisher; 154453) and then fixed with 4% paraformaldehyde for 15 minutes. After permeabilization and blocking per the manufacturer's protocol, wells were incubated with either mouse anti-NCOA7 antibody (Santa Cruz Biotechnology; sc-393427), rabbit anti-ATP6V1B2 antibody (abcam; ab73404), both antibodies, or neither antibodies overnight at 4° C. (Table 3). Cells were then incubated with the PLUS and MINUS probes for one hour, ligated for 30 minutes, and amplified for 100 minutes at 37° C. Slides were then mounted with ProLong™ Gold Antifade Mountant with DAPI (ThermoFisher; P36935). Images were acquired on a Nikon A1 Confocal Microscope at the Center for Biologic Imaging at the University of Pittsburgh.

[4] = tested on: BA.2 spike pseudotyped virus; type: cell-based
coronavirus = details: mouse, in vivo
Klebsiella pneumoniae = assay: Mice infected with Klebsiella pneumoniae, acute lung injury; type: in vivo, mouse; details: 5 mg/kg IP daily for 3 days
Description: Mice were infected with Klebsiella pneumoniae. […] (FIG. 23 (A, B)) Representative images were prepared of lung tissue sections stained with H&E after 48 hours of intratracheal infection with K. pneumoniae in mice treated with DMSO compared to 958 (5 mg/kg IP dosing daily for 3 days).

NCOA7 [5] = molecular target: T1, NCOA7 (Homo sapiens, UniProt Q8NI08); assay: Initial experimental validation of top scoring virtual screening compounds; details: preliminary data
T1 sequence (Q8NI08 1-942): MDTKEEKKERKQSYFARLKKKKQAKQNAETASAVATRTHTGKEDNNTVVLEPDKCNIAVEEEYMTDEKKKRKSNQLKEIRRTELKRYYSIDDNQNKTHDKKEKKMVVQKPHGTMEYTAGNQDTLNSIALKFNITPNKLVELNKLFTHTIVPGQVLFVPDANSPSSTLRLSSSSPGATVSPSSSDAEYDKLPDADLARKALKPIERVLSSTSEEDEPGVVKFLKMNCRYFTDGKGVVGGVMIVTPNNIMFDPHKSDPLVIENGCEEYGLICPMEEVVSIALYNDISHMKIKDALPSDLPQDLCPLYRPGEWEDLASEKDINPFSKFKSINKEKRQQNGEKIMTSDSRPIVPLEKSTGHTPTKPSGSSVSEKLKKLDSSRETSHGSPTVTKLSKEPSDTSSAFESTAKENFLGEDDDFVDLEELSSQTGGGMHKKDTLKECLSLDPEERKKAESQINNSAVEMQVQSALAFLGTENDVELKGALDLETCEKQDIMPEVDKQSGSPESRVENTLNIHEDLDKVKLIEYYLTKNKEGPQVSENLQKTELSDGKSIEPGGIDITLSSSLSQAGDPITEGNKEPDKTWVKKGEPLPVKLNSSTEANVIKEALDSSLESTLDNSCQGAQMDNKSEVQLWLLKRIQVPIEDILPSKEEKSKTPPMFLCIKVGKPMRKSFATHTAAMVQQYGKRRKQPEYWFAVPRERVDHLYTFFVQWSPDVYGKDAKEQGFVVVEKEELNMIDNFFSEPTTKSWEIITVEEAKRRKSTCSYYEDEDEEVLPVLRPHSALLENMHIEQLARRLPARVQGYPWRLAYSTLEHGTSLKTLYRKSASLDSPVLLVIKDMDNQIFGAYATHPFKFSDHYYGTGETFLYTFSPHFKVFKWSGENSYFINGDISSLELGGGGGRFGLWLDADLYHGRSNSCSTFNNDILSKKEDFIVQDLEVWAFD
Text: Pharmacophore modeling: Using Pharmmaker, we identified the residues involved in high affinity interactions with each molecular probe type. The residue-probe interactions were subsequently rank-ordered based on their frequency of occurrence at the druggable hot spots in multiple runs. […] The pharmacophore model contained a hydrogen bond donor and a hydrophobic feature at the isopropylamine site and hydrophobic and aromatic rings at the two benzene sites. The pharmacophore model was then screened against the ZINC and MolPort libraries using Pharmit. The MolPort library contains 67,033,884 conformers corresponding to 4,848,718 compounds, and the ZINC library contains 122,276,899 conformers of 13,127,550 compounds. Among top-scoring compounds, MolPort-004-267-958 was selected for further refinement after initial experimental validation.

NCOA7 [6] = assay: IL-1β-mediated upregulation of NCOA7 in ECs; type: cell-based; details: inhibition of STAT1/2 signaling
[7] = 25 μM for 24 hours versus ethanol

CC(CCC[C@@H](C)[C@H]1CC[C@H]2[C@@H]3[C@H](O)CC4=CC(=O)CC[C@]4(C)[C@H]3CC[C@]12C)C(=O)O (stereo partly drawn) [7HOCA, 7α-hydroxy-3-oxo-4-cholestenoic acid]
VCAM1 expression (VCAM1; 7HOCA 50 μM for 24 hours versus ethanol control): significantly upregulated
adhesion of leukocytes and monocytes to a PAEC monolayer (human PAECs; 7HOCA-treated PAECs versus ethanol control): promoting adhesion
CD11b+ monocyte infiltration into the vascular bed [1]: enhanced
RVSP [1]: increased
VCAM1 expression in pulmonary vessels [1]: enhanced
pulmonary arteriolar remodeling [1]: increased

C[C@H](CCCC(C)(C)O)[C@H]1CC[C@H]2[C@@H]3CC=C4C[C@@H](O)CC[C@]4(C)[C@H]3CC[C@]12C [25HC, 25-hydroxycholesterol]
VCAM1 expression (VCAM1; [7]): similarly upregulated VCAM1
immune cell adhesion to a PAEC monolayer (human PAECs; [7]): enhanced immune cell adhesion

O=C(NCc1cc(=O)oc2cc(O)c(O)cc12)c1nn(-c2ccccc2)c(=O)c2ccccc12 [958ami]
CH25H induction (CH25H): prevented induction of CH25H
EC immunoactivation as noted by VCAM1 expression (VCAM1; 958ami 20 μM for 24 hours versus DMSO): decreased EC immunoactivation
CD11b+ monocyte infiltration at the pulmonary vessel [2]: attenuation
CH25H expression in pulmonary vessels [2]: decreased CH25H expression
RVSP [2]: significant reduction
VCAM1 expression at the endothelium [2]: attenuation
pulmonary vessel muscularization [2]: decreased muscularization
right ventricular hypertrophy (Fulton's Index) [2]: significant reduction
hepatic or renal toxicity ([2]; versus vehicle): neither had appreciable hepatic or renal toxicity
number of amplifications per cell (ATP6V1B2-NCOA7 interactions) [3]: significantly induced
EC immunoactivation as noted by immune cell adhesion to a monolayer (human PAECs; 958ami-treated PAECs versus DMSO): decreased EC immunoactivation
BA.2 spike pseudotyped virus infection [4]: decrease

O=C(OCc1cc(=O)oc2cc(O)c(O)cc12)c1nn(-c2ccccc2)c(=O)c2ccccc12 [compound 958]
mortality (coronavirus): significantly improved mortality
proinflammatory markers (IL-1α, IL-1β, IFN-γ, VCAM1, and ICAM1) in lung tissue (coronavirus): attenuation
viral load in lung tissue (coronavirus): decreased viral load
inflammation by ELISA on lung homogenate of IL-1β, TNF-α, and IL-6 (Klebsiella pneumoniae): decreased inflammation
acute lung injury (Klebsiella pneumoniae; H&E after 48 hours of intratracheal infection): improvement of acute lung injury
BA.2 spike pseudotyped virus infection [4]: decrease
effect on NCOA7 relative to the other predicted compounds (NCOA7 [5]): activator of NCOA7

N#CCNC(=O)c1ccc(-c2ccnc(Nc3ccc(N4CCOCC4)cc3)n2)cc1 [momelotinib]
IL-1β-mediated upregulation of NCOA7 (NCOA7 [6]): abrogated
